Tests used:
[1] = tested on: α2-adrenergic autoreceptors; conditions: compared with R(-)-mirtazapine; cited from earlier work
acute thermal pain = test: Plantar test (radiant heat, Hargreaves): paw withdrawal latency after intrathecal injection; type: in vivo, Male Wistar rats; conditions: for Paw withdrawal latencies: 240 minutes after injection, mean ± sem, vehicle 11.2 ± 0.24 s, cut-off 20 sec; for overall effect on acute thermal pain over the dose range tested: 0.001 to 1 mg/kg intrathecal; for time after injection of the maximum of pro- or antinociception: intrathecal injection
Protocol: The pro- or antinociceptive properties of (+/-)-mirtazapine and its enantiomers R(-)-mirtazapine and S(+)mirtazapine, respectively, were analyzed in acute thermal pain (Hargreaves et al., Pain, 32 (1988) 77-88). Male Wistar rats weighing 350-400 g (housed three per cage, access to foot and water ad libitum, room maintained at 22°C ± 0,5°C and on a 12:12 light- dark cycle) were anesthetized with intraperitoneal (i.p.) injection of pentobarbital (60 mg/kg i.p.). The rats were implanted with polyethylene catheters (inner diameter 0.28 mm, outer diameter 0.61 mm), which were advanced from the cisterna magna to the rostral edge of the lumbar enlargement as described before (Muth-Selbach et al., Anesthesiology, 101 (2004) 753-8; Ahmadi et al., Science, 300, (2003) 2094-2097; Zeilhofer et al., J Neurosci 20 (2000) 4922-9). Rats with impaired motor function after catheter implantation were excluded from the study. Paw withdrawal latencies were tested 6-10 days after surgery at all times in the same air conditioned room. The lateral plantar surface of both hind paws was exposed to a defined radiant heat stimulus through a transparent perspex surface (Plantar Test, Hugo Basile Inc., Italy, Comerio) and paw withdrawal latencies were recorded (Hargreaves et al., op.cit.). The animal is unrestrained and unhandled during experiments. When the rat feels pain and withdraws its paw, the sudden drop of reflected radiation switches off the I.R. source and stops the reaction time counter so that the withdrawal latency to the nearest 0.1 s is determined. Paw withdrawal latencies of both hind paws were determined from 4 independent measurements for each time point. A cut-off time of 20 sec was set to avoid tissue damage.
Behavior as described above was tested before and 120, 240 min and 24 hours after application of either substance. In order to find the maximum effect over time, groups of 4 animals were tested before and 30, 60, 120, 180, 240 min and 24 hours after application of 0.1 mg/kg (+/-)-mirtazapine.
(+/-)-Mirtazapine, R(-)-mirtazapine, S(+)mirtazapine or vehicle (0.9% NaCl) were applied to the cerebrospinal fluid via intrathecal catheters in a total volume of 10 µl. Rats were randomly assigned to the different treatment groups consisting of 6 to 9 rats each. All behavioral observations were performed in a standardized blinded fashion.
After the behavioral tests, rats were sacrificed by a lethal dose of pentobarbital i.p.. Proper position of the catheter tip was verified after laminectomy and methylene blue injection through the catheter. All behavioral tests were performed with permission of the German authorities concerned with the law on experiments involving animals and were in accordance with the guidelines of the International Association for the Study of Pain.
(+/-)-Mirtazapine (1, 2, 3, 4, 10, 14b-Hexahydro-2-methyl-pyrazino-[2, 1-a] pyrido [2, 3-c] [2] benzazepin, free base), R(-)-mirtazapine and S(+)-mirtazapine maleate salt were generously donated by N.V. Organon, Oss (The Netherlands) and were of the highest quality available. All chemicals were dissolved in 0.9 % NaCl and stored in aliquots at - 70°C. Fresh dilutions were made with 0.9 % NaCl on every experimental day.
Group data are presented as mean + standard error of the mean(sem). Withdrawal latencies in the different treatment groups were analyzed by analysis of variance (repeated measurements) followed by LSD post hoc tests (SAS Software System). P ≤ 0.05 was assumed significant. In detail, for each dose (i.e. 1, 0.1, 0.01 and 0.001 mg/kg) twelve comparisons were made at five time points.

neuropathic pain = conditions: chronic constriction injury model, rats; cited from earlier work
[2] = tested on: hypothermic response to a 5-HT1-agonist; conditions: normal rats, chronic administration; compared with one of the enantiomers alone; cited from earlier work
thermal pain = conditions: 3-30 mg/kg intraperitoneally, rats; cited from earlier work
[3] = tested on: acute nociceptive responses; conditions: rats; cited from earlier work
[4] = 0.001 mg/kg intrathecal (lowest dose)
[5] = 0.01 mg/kg intrathecal, time points 120, 240 minutes, 24 hours as stated per substance
[6] = 0.1 mg/kg intrathecal, time points 120, 240 minutes, 24 hours as stated per substance
[7] = 1 mg/kg intrathecal, time points 120, 240 minutes, 24 hours as stated per substance

CN1CCN2c3ncccc3Cc3ccccc3[C@H]2C1 [S(+)-mirtazapine]
potency as blocker of α2-adrenergic autoreceptors [1]: more potent blocker | pro- or antinociceptive effect (acute thermal pain; [4]): neither pro- nor antinociceptive | Paw withdrawal latencies (acute thermal pain; 0.001 mg/kg intrathecal): 8.7 ± 0.8 s | Paw withdrawal latencies (acute thermal pain; 0.01 mg/kg intrathecal): 8.4 ± 1.1 s | pro- or antinociceptive effect (acute thermal pain; [5]): pronociceptive | Paw withdrawal latencies (acute thermal pain; 0.1 mg/kg intrathecal): 8.1 ± 1.0 s | pro- or antinociceptive effect (acute thermal pain; [6]): pronociceptive | Paw withdrawal latencies (acute thermal pain; 1 mg/kg intrathecal): 7.4 ± 0.4 s | pro- or antinociceptive effect (acute thermal pain; [7]): pronociceptive | overall effect on acute thermal pain over the dose range tested (acute thermal pain): exclusively pronociceptive | time after injection of the maximum of pro- or antinociception (acute thermal pain): 240 min

CN1CCN2c3ncccc3Cc3ccccc3[C@@H]2C1 [R(-)-mirtazapine]
pro- or antinociceptive effect (acute thermal pain; [4]): neither pro- nor antinociceptive | Paw withdrawal latencies (acute thermal pain; 0.001 mg/kg intrathecal): 11.3 ± 0.9 s | Paw withdrawal latencies (acute thermal pain; 0.01 mg/kg intrathecal): 15.6 ± 0.6 s | pro- or antinociceptive effect (acute thermal pain; [5]): antinociceptive | Paw withdrawal latencies (acute thermal pain; 0.1 mg/kg intrathecal): 13.8 ± 0.4 s | pro- or antinociceptive effect (acute thermal pain; [6]): antinociceptive | Paw withdrawal latencies (acute thermal pain; 1 mg/kg intrathecal): 13.5 ± 0.5 s | pro- or antinociceptive effect (acute thermal pain; [7]): antinociceptive | overall effect on acute thermal pain over the dose range tested (acute thermal pain): only elicited antinociceptive effects | time after injection of the maximum of pro- or antinociception (acute thermal pain): 240 min

CN1CCN2c3ncccc3Cc3ccccc3C2C1 (racemic) [(+/-)-mirtazapine, 1,2,3,4, 10, 14b-Hexahydro-2-methyl-pyrazino-[2,1-a] pyrido [2,3-c] [2] benzazepin]
mechanical allodynia (neuropathic pain): not | mechanical hyperalgesia (neuropathic pain): significantly attenuated | thermal hyperalgesia (neuropathic pain): significantly attenuated | hypothermic response to a 5-HT1-agonist [2]: potentiated | pro- or antinociceptive effect (acute thermal pain; [4]): neither pro- nor antinociceptive | Paw withdrawal latencies (acute thermal pain; 0.001 mg/kg intrathecal): 11.5 ± 0.9 s | Paw withdrawal latencies (acute thermal pain; 0.01 mg/kg intrathecal): 14.5 ± 1.0 s | pro- or antinociceptive effect (acute thermal pain; [5]): antinociceptive | Paw withdrawal latencies (acute thermal pain; 0.1 mg/kg intrathecal): 14.4 ± 0.3 s | pro- or antinociceptive effect (acute thermal pain; [6]): antinociceptive | Paw withdrawal latencies (acute thermal pain; 1 mg/kg intrathecal): 6.9 ± 0.4 s | pro- or antinociceptive effect (acute thermal pain; [7]): profound pronociceptive effect | overall effect on acute thermal pain over the dose range tested (acute thermal pain): dose-dependently exerted pro- and- antinociceptive activity | time after injection of the maximum of pro- or antinociception (acute thermal pain): 240 min | antinociceptive activity in thermal pain (hot plate) (thermal pain): exhibited antinociceptive activity | acute nociceptive responses in the tail flick test [3]: did not affect

— patent EP1792618A1, “R-mirtazapine for the treatment of pain” (Freynhagen, Rainer, priority 2005, dated 2007)
